Data set [1] concerns uveal melanoma, hematologic cancer, prostate cancer, breast cancer and Ewing's sarcoma cell lines versus other tested cell lines. Briefly: Growth of uveal melanoma, hematological, prostate, breast cancer and Ewing's sarcoma cell lines with Compound B (day 3 and day 7). The format is cell-based. The protocol: (§1) Procedure: Uveal melanoma cell lines (92-1, MP41, MP38, MP46), prostate cancer cell lines (LNCAP), lung cancer cell lines (NCI-H1299), and immortalized embryonic kidney lines (HEK293T) were plated into 96 well plates with growth media (see Table 9). […] Cells were incubated at 37 degrees Celsius for 3 days. After three days of treatment, the media was removed from the cells and 30 microliters of TrypLE (Gibco) was added to cells for 10 minutes. Cells were detached from the plates and resuspended with the addition of 170 microliters of growth media. Cells from two DMSO-treated control wells were counted, and the initial number of cells plated at the start of the experiment, were re-plated into fresh-compound containing plates for an additional four days at 37 degrees Celsius. At day 7, cells were harvested as described above. On day 3 and day 7, relative cell growth was measured by the addition of Cell-titer glo (Promega) and luminescence was measured on an Envision plate reader (Perkin Elmer). […] At the time of cell splitting on days 3 and 7, cells were split into new 96 well plates, and fresh compound was added four hours after re-plating.
Procedure: All cell lines described above in Example 4 were also tested as described above with Compound B. In addition, the following cell lines were also tested as follows. […]

Data set [2] relates to uveal melanoma cell lines (92-1, MP41, MP38, MP46). Briefly: Growth of uveal melanoma and non-small cell lung cancer cell lines (3 day, Cell-titer glow). The following applies: 3 days; 0 to 10 micromolar; FIG. 5. The format is cell-based. The protocol: Procedure: Uveal melanoma cell lines (92-1, MP41, MP38, MP46) and Non-small cell lung cancer cells (NCIH1299) were plated into 96 well plates with growth media (see Table 9). BRG1/BRM ATPase inhibitor, compound 67, was dissolved in DMSO and added to the cells in a concentration gradient from 0 to 10 micromolar at the time of plating. Cells were incubated at 37° C. for 3 days. After three days of treatment, cell growth was measured with Cell-titer glow (Promega), and luminescence was read on an Envision plate reader (Perkin Elmer).

Data set [3] relates to parental MP41 and PKCi-resistant MP41 uveal melanoma cells. Description: 7-day growth inhibition assay in parental and PKC inhibitor-resistant MP41 cells. The format is cell-based. The protocol:
Procedure: MP41 uveal melanoma cells were made resistant to the PKC inhibitor (LXS196; MedChemExpress), by long-term culture in growth media (see Table 9) containing increasing concentrations of the compound, up to 1 micromolar. After 3 months, sensitivity of the parental MP41 cells and the PKC inhibitor (PKCi)-resistant cells to the PKC inhibitor (LXS196) or the BRG1/BRM ATPase inhibitor (Compound B) was tested in a 7-day growth inhibition assay as described above in Example 6.

The subject of data set [4] is uveal melanoma cell lines 92-1 and MP41. Description: Comparison of Compound B with clinical PKC and MEK inhibitors in uveal melanoma cell lines (3 day growth). The following applies: vs LXS196 and Selumetinib. The format is cell-based. The protocol: Procedure: Uveal melanoma cell lines, 92-1 or MP41, were plated in 96 well plates in the presence of growth media (see Table 9). BAF ATPase inhibitor (Compound B), PKC inhibitor (LXS196; MedChemExpress), and MEK inhibitor (Selumetinib; Selleck Chemicals) were dissolved in DMSO and added to the cells in a concentration gradient from 0 to 10 micromolar at the time of plating. Cells were incubated at 37° C. for 3 days. After three days of treatment, cell growth was measured with Cell-titer glow (Promega), and luminescence was read on an Envision plate reader (Perkin Elmer).

The test system is the same in data set [5]. Briefly: Comparison of Compound A with clinical PKC and MEK inhibitors in uveal melanoma cell lines (3 day growth). The format is cell-based. The settings on record: vs LXS196 and Selumetinib. Here is the method: Procedure: Uveal melanoma cell lines, 92-1 or MP41, were plated in 96 well plates in the presence of growth media (see […]). […] Cells were incubated at 37 degrees Celsius for 3 days. After three days of treatment, cell growth was measured with Cell-titer glow (Promega), and luminescence was read on an Envision plate reader (Perkin Elmer).

For data set [6], the system named is uveal melanoma and hematologic cancer cell lines versus other tested cell lines. Briefly: Growth of uveal melanoma, hematological and other cancer cell lines with Compound A (Cell-titer glo, day 3 and day 7, GI50). The format is cell-based. The settings on record: day 7. The protocol: as §1
Data set [7] relates to 92-1 uveal melanoma cells (subcutaneous tumors). Description: 92-1 uveal melanoma xenograft tumor growth in nude mice. The format is in vivo. The following applies: 3 weeks. Here is the method: Procedure: Nude mice (Envigo) were engrafted subcutaneously in the axillary region with 5×10^6 92-1 uveal melanoma cells in 50% Matrigel. Tumors were grown to a mean of ˜200 mm^3, at which point mice were grouped and dosing was initiated. Mice were dosed once daily by oral gavage with vehicle (20% 2-Hydroxypropyl-β-Cyclodextrin) or increasing doses of Compound C. Tumor volumes and body weights were measured over the course of 3 weeks, and doses were adjusted by body weight to achieve the proper dose in terms of mg/kg. At this time, animals were sacrificed, and tumors were dissected and imaged.

For another data set, the target named is T1, BRM (Homo sapiens, UniProt P51531).
T1 construct: made in house; host or cells: High Five insect cells
T1 sequence (P51531 whole entry): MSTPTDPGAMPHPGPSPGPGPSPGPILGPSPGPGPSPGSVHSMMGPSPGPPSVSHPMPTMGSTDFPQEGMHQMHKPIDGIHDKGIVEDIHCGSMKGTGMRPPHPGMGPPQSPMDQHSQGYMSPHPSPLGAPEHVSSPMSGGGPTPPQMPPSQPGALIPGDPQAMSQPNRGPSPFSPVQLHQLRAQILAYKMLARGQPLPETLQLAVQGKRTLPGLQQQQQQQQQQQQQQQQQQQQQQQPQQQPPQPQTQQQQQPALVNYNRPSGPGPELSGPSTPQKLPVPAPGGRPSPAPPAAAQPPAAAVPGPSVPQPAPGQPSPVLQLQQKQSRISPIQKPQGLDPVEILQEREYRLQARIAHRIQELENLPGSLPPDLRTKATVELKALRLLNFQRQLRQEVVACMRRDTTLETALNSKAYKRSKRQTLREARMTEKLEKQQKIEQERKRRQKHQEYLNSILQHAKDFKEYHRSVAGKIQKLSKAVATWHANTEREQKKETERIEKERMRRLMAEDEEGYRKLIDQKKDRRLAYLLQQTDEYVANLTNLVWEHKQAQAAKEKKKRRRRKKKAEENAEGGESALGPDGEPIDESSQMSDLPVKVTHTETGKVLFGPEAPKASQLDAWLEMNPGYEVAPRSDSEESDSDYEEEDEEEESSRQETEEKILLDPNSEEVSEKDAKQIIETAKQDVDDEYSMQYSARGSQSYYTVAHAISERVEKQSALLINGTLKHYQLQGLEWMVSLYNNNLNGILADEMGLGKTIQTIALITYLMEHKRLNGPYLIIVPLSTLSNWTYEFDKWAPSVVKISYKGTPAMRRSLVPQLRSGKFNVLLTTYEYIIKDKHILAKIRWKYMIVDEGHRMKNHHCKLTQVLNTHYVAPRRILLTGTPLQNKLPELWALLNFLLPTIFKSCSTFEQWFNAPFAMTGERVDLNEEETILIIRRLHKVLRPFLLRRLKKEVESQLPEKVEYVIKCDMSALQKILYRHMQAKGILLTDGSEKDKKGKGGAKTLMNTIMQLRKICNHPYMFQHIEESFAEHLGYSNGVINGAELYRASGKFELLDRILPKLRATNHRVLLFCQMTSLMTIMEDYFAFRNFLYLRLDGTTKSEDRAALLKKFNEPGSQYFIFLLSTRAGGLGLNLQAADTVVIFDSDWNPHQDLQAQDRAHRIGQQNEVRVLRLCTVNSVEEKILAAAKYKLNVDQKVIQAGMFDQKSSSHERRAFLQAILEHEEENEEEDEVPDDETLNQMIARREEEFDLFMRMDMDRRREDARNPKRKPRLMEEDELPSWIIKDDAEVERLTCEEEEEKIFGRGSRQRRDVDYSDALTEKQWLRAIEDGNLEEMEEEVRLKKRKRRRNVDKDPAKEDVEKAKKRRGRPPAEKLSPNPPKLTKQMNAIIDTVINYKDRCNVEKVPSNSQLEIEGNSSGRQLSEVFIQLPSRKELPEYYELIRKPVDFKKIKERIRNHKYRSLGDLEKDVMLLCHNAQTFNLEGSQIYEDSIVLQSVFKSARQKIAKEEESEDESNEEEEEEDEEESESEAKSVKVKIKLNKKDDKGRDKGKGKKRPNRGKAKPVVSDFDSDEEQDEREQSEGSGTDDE
Briefly: ATPase catalytic activity assay (ADP-Glo), BRM. The format is biochemical. The settings on record: Table 10; for Ratio (BRG1 IC50 (μM) divided by BRM IC50 (μM)): ATPase assay, selectivity BRG1/BRM; for IC50: ATPase catalytic activity assay (ADP-Glo). The gist of the method: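 Reaction holds 30 nM BRM, 20 nM salmon sperm DNA and 400 μM ATP in 20 mM Tris pH 8, 20 mM MgCl2, 50 mM NaCl, 0.1% Tween-20, 1 mM DTT. Incubated 1 h at room temperature. ADP formed is detected by ADP-Glo luminescence.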
Background: In ADP-Glo the light output rises with the ADP produced.

In a further data set the target is T2, BRG-1 (Homo sapiens, UniProt P51532).
T2 construct: made in house; host or cells: High Five insect cells
T2 sequence (P51532 whole entry): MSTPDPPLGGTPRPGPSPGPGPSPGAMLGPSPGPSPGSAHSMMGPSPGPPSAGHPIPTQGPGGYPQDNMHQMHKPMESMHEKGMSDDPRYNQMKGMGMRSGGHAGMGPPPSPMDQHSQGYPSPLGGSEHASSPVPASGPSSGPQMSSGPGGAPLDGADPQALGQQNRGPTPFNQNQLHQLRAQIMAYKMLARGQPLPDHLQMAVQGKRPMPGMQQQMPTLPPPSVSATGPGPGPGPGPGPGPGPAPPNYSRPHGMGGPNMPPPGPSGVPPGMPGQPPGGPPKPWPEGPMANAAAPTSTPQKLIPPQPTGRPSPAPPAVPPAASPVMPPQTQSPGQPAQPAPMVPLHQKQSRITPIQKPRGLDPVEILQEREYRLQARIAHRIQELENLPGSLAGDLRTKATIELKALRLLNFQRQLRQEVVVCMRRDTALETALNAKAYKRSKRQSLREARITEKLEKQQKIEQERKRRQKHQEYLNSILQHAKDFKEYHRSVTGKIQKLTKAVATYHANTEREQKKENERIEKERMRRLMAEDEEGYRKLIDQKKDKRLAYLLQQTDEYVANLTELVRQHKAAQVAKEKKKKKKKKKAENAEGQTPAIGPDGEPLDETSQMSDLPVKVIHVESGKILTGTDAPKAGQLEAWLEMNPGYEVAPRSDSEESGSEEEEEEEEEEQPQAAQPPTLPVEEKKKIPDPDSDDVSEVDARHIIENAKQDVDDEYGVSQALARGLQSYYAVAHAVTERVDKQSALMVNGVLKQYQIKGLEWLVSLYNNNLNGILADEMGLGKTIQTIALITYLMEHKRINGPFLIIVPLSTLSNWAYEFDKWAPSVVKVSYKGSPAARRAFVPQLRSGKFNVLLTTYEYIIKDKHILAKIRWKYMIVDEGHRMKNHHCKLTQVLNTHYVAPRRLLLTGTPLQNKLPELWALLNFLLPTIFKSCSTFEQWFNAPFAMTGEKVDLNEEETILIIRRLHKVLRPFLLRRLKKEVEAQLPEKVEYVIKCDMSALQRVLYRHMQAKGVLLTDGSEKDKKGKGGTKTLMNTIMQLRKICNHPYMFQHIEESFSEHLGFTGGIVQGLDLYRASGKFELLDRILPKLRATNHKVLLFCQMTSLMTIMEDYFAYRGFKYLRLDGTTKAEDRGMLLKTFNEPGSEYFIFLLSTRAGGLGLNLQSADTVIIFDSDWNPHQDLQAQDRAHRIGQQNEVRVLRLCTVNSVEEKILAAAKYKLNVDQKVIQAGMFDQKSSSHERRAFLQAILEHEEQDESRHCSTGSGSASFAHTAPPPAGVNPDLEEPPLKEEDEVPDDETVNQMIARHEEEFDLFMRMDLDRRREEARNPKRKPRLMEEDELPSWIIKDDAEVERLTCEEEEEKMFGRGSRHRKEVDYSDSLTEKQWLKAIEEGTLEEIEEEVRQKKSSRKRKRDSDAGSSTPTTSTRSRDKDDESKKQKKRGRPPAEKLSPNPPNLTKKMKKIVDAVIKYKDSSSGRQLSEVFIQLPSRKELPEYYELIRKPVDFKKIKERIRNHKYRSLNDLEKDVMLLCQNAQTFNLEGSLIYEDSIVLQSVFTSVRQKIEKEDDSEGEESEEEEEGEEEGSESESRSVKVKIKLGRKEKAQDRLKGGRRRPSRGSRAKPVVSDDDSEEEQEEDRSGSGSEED
Briefly: ATPase catalytic activity assay (ADP-Glo), BRG-1. The format is biochemical. The settings on record: Table 10, read-out: BRG1 IC50. The gist of the method:
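Biochemical ADP-Glo assay, BRG-1. Post-reaction: ATP depletion reagent, 40 min RT; ADP→ATP conversion/detection reagent, 60 min RT; luminescence read on plate luminometer.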

Turning to `CSCC[C@H](NC(=O)c1ccn(S(C)(=O)=O)c1)C(=O)Nc1nc(-c2cccc(-c3ccncc3)c2)cs1` [Compound B, (S)-1-(methylsulfonyl)-N-(4-(methylthio)-1-oxo-1-((4-(3-(pyridin-4-yl)phenyl)thiazol-2-yl)amino)butan-2-yl)-1H-pyrrole-3-carboxamide], the “sensitivity of cell lines to BRG1/BRM inhibition (growth)” value in data set [1] (breast cancer and Ewing's sarcoma cell lines vs other tested cell lines, FIG. 3) is “more sensitive to BRG1/BRM inhibition than the other tested cell lines”. For the same compound, the “duration of growth inhibition” value in data set [1] (breast cancer and Ewing's sarcoma cell lines, day 7) is “maintained through day 7”. For the same compound, the “growth inhibition in uveal melanoma cell lines” value in [2] was “potent growth inhibition”. Further, the “sensitivity of PKCi-resistant cells relative to parental MP41 cells” value in [3] (FIG. 7B) was “more sensitive to Compound B than were the parental MP41 cells”. The “growth inhibition of PKCi-resistant and parental cell lines” value in [3] (both PKCi-resistant and parental MP41, FIG. 7B) is listed as “strong growth inhibition”. Further, the “growth inhibition compared with clinical PKC and MEK inhibitors” value in data set [4] (3 days, FIG. 6A, 6B) is reported as “more potent effects on growth inhibition”. Besides, the “onset of growth inhibition compared with clinical PKC and MEK inhibitors” value in data set [4] is given as “faster onset of growth inhibition”.
For `CSCC[C@H](NC(=O)c1ccc(N)cc1)C(=O)Nc1nc(-c2cccc(-c3ccncc3)c2)cs1` [Compound A], in data set [5] (3 days, FIG. 2A, 2B), the “growth inhibition compared with clinical PKC and MEK inhibitors” value is on record as “comparable growth inhibition”. The “onset of inhibition compared with clinical PKC and MEK inhibitors” value in data set [5] is on record as “faster onset of inhibition”. Moreover, the “duration of growth inhibition” value in data set [6] is given as “maintained through day 7”.
As for `C[C@@H]1CN(c2cccc(-c3csc(NC(=O)CNC(=O)c4ccn(C(C)(C)C)c4)n3)n2)C[C@H](C)O1` [Compound C, 1-(tert-butyl)-N-(2-((4-(6-(cis-2,6-dimethylmorpholino)pyridin-2-yl)thiazol-2-yl)amino)-2-oxoethyl)-1H-pyrrole-3-carboxamide], the “tumor response at the highest dose” value in data set [7] (50 mg/kg, once daily oral gavage) is “tumor regression”. In data set [7] (all treatments, FIG. 8C), the “tolerability / body weight” value was “well tolerated with no body weight loss observed”. Also, the tumor growth inhibition entry in data set [7] (once daily oral gavage, increasing doses, FIG. 8A, 8B) is reported as “tumor growth inhibition in a dose-dependent manner”.
Turning to `CC1(N)CCN(c2cccnc2NC(=O)c2nc(-c3ncccc3C(F)(F)F)cnc2N)CC1` [LXS196], the “growth of PKCi-resistant cells relative to parental MP41 cell line” value in data set [3] (FIG. 7A) is listed as “could tolerate growth at higher concentrations of LXS196”.
`COc1nc([C@H](F)CF)ccc1-c1ccc2cnc(CNC(=O)c3cc(F)c4c(c3)S(=O)(=O)[C@@H](F)CCO4)cc2n1` [Compound 98]: at BRM, the “Ratio (BRG1 IC50 (μM) divided by BRM IC50 (μM))” value is on record as 31.77 and it took 3.5 nM to reach half-maximal inhibition (IC50). The IC50 – broadly, the concentration needed to halve the response being measured – on BRG-1 came out at 123 nM.
Consider `O=C(NCc1cc2nc(N3CCOc4cc(N5CC[C@H]5CF)cnc43)ccc2cn1)c1cc(F)c2c(c1)S(=O)(=O)[C@@H](F)CCO2` [Compound 31], for which, at BRM, the “Ratio (BRG1 IC50 (μM) divided by BRM IC50 (μM))” value came out at 18.05 and the IC50 was 1.8 nM. Also, the IC50 at BRG-1 stood at 33 nM.
Regarding `O=C(NCc1cc2nc(N3CCOc4ccc([C@H]5C[C@@H]5F)nc43)ccc2cn1)c1cc(F)c2c(c1)S(=O)(=O)[C@@H](F)COC2` [Compound 132], on BRM, the “Ratio (BRG1 IC50 (μM) divided by BRM IC50 (μM))” value stood at 17.90 and the IC50 was found to be 4.5 nM. Further, the IC50 on BRG-1 stood at 77.2 nM.
On to `C[C@@H](F)c1cnc2c(c1)OCCN2c1ccc2cnc(CNC(=O)c3cc(F)c4c(c3)S(=O)(=O)[C@@H](F)CCO4)cc2n1` [Compound 274], for which, at BRM, the “Ratio (BRG1 IC50 (μM) divided by BRM IC50 (μM))” value is given as 22.22 and half-maximal inhibition (IC50) was put at 8.9 nM. The IC50 at BRG-1 turned out to be 192 nM.
As to `O=C(NCc1cc2nc(N3CCOc4cc(F)cnc43)ccc2cn1)c1cc(F)c2c(c1)S(=O)(=O)[C@@H](F)CCO2` [Compound 282], on BRM, the “Ratio (BRG1 IC50 (μM) divided by BRM IC50 (μM))” value turned out to be 17.58. Moreover, the half-maximal inhibitory concentration (IC50) was 9.4 nM against BRM and 163 nM on BRG-1.
The matching figures for `C[C@@H]1CN(c2cccc(-c3ccc4cnc(CNC(=O)c5ccc6c(c5)S(=O)(=O)[C@@H](F)CN(C)C6)cc4n3)n2)C[C@H](C)O1` (single isomer, unassigned) [Compound 317]: 7.78, 227 nM and 1760 nM.
As to `O=C(NCc1cc2cc(-c3cccc(OC(F)F)n3)ccc2nn1)c1cc(Cl)c2c(c1)S(=O)(=O)[C@@H](F)COC2` [Compound 196], the “Ratio (BRG1 IC50 (μM) divided by BRM IC50 (μM))” value on BRM was 38.53. Besides, the IC50 on BRM amounted to 99.8 nM; at BRG-1, 3840 nM.
`C[C@H](NC(=O)c1cc(F)c2c(c1)S(=O)(=O)[C@@H](F)COC2)c1cc2nc(N3CCOc4cc(C5CC5)cnc43)ccc2cn1` [Compound 278]: on BRM, the “Ratio (BRG1 IC50 (μM) divided by BRM IC50 (μM))” value is 9.67 and the IC50 is 9.2 nM. Moreover, on BRG-1, the IC50 was determined as 75.5 nM.
With `COc1nc(C(F)F)ccc1-c1ccc2cnc(CNC(=O)c3cc(F)c4c(c3)S(=O)(=O)[C@@H](F)COC4)cc2c1` [Compound 137], on BRM, the “Ratio (BRG1 IC50 (μM) divided by BRM IC50 (μM))” value was determined as 21.45 and the midpoint of inhibition, the IC50, lay at 4.7 nM. Besides, the IC50 at BRG-1 turned out to be 99.7 nM.
For the compound `C[C@H]1[C@H](F)CN1c1cnc2c(c1)OCCN2c1ccc2cnc(CNC(=O)c3cc(F)c4c(c3)S(=O)(=O)[C@@H](F)CCO4)cc2n1` [Compound 142], on BRM, the “Ratio (BRG1 IC50 (μM) divided by BRM IC50 (μM))” value is recorded as 19.04 and the IC50 is 4.7 nM. Further, the IC50 on BRG-1 came to 89.1 nM.
Take `[2H]C1([2H])OC([2H])([2H])[C@H](F)S(=O)(=O)c2cc(C(=O)NCc3cc4nc(N5CCOc6cc(C7CC7)cnc65)ccc4cn3)cc(F)c21` [Compound 3]: the IC50 is 0.8 nM on BRM and 25.2 nM on BRG-1.
Take `C[C@@H]1C[C@H]1c1ccc2c(n1)N(c1ccc3cnc(CNC(=O)c4cc(F)c5c(c4)S(=O)(=O)[C@@H](F)COC5)cc3n1)CCO2` [Compound 41]: the “Ratio (BRG1 IC50 (μM) divided by BRM IC50 (μM))” value on BRM came to 20.00. For the same compound, the IC50 at BRM was found to be 2 nM; at BRG-1 it was 46.4 nM.

(Values after patent US12139487B2, “Compounds and uses thereof” (Foghorn Therapeutics Inc., priority 2022, dated 2024).)
